Patent US10064911B2, “Peptides for treating cancer” (The Board of Trustees of the University of Illinois, priority 2015, dated 2018)
“Also recorded” adds a separate entry of the source.

Key:
HMVECs = test: Thrombin-induced Ca2+ release from ER stores in HMVECs (Fura 2-AM); format: cell-based; conditions: pre-treatment with 5 μg/ml for 20 min prior to thrombin stimulation
Method: (FIG. 4A) HMVECs pre-treated with AP-attached IP3R3 peptide or control (AP) peptide were loaded with Fura 2-AM and 340/380 ratio was calculated after stimulation of cells with thrombin (50 nM) in the absence and in the presence of extracellular Ca^2+. Arrow, time of thrombin addition. […] The increase is normalized to control non-treated cells from the same experiment (n=4).
[…] contains EB binding consensus motif, Ser/Thr-x-Ile-Pro (SxIP) (SEQ ID NO: 5). […] The role of the interaction between EB3 and IP3R3 was recently described by Geyer et al., Cell Rep 12(1):79-89; 2015. […] The effects of IP3R3 peptide and taxol were compared in regulating Ca^2+ release.

[1] = test system: MDA-MB-231 human breast cancer cells; test: Triple negative breast cancer xenograft: tumor growth and neovascularization; format: in vivo, Nude mice; conditions: for number of vessels outside of the tumor: H&E staining
From the text: FIG. 8A plots tumor growth curve in xenograft model; mean is shown; n=8 mice per group. FIG. 8B plots the number of vessels per area counted outside of the tumor; n=25 fields/mouse; N=5 mice; *, p<0.05; **, p<0.01.
The effect of EBIN on growth rate of triple negative (estrogen receptor [ER], progesterone receptor [PR] and human epidermal growth factor receptor-2 [HER-2] are not expressed in this cell line) human breast cancer cells using a xenograft model was investigated. Nude mice (n=8 mice per group) were injected with 3×10^6 MDA-MB-231 human breast cancer cells into the upper left mammary fat pad. All mice developed the tumor by day 13. At that time point, mice were randomized and divided by 5 groups and each group received the treatment. Study was terminated at day 24 when the tumor reached 2000 mm^3 in size. The treatment with control peptide and EBIN was performed daily for 7 days. EBIN and control peptide were delivered via tail vein injection. Control peptide was injected at 5 μM/kg body weight. EBIN was injected at 1 μM/kg and 5 μM/kg body weight.
Treatment with taxol was performed via intraperitoneal injection at 10 μM/kg body weight for 4 days. Tumor size was measured 3 times a week.
To correlate the effect of EBIN treatment with tumor neovascularization, tumor tissue was collected, fixed and stained with hematoxylin and eosin (H&E). Number of […] outside of the tumor mass was scored and normalized per area.

[2] = test system: blood vessels ingrowth into matrigel plugs; test: In vivo ectopic matrigel plug angiogenesis; set-up: species or system mice; conditions: for number of vessels / vessel formation in matrigel plugs: matrigel with heparin and VEGF, plugs removed at 96 hours, HE staining
Method: (§1) Group 1 was treated with control peptide and group 3 was treated with Myr-EBIN at 0, 36 and 60 hrs; group 2 received only 36 and 60 hour treatment. […] Scale bar, 200 μm.
EBIN effect on blood vessels in growth in an in vivo model of ectopic matrige angiogenesis was also investigated. Blood vessel in growth matrigel was pre-mixed with heparin and VEGF but not with endothelial cells, and i.p. injected into low abdomen of mice. There were two 400 μL plugs per mouse. […] These vessels were functional and perfused with blood that is apparent from the presence of red blood cells inside the vessels. In addition, mice were treated with EBIN at the time of matrigel injection (FIG. 7C,2; Group 2) or 36 hrs after matrigel (FIG. 7C,3; Group 3). Matrigel plugs were removed at 96 hours, fixed and stained with HE to assess the vessel formation.

endothelial cell = format: cell-based; conditions: data not shown
[3] = test system: human VEGF-induced vascular leakage; test: VEGF-induced subcutaneous vascular leakage of albumin-bound Evans Blue; format: in vivo, Balb/cJ mice; conditions: pretreated 1 μM/kg; human VEGF 50 ng/kg intradermal; measured at 620 nm
Method: A study investigating whether injection of the EBIN prevented vascular endothelial growth factor (VEGF)-induced microvascular leakage was carried out. Balb/cJ mice were pretreated with the EBIN peptide (1 μM/kg) or a control peptide (2T→A mutation) and then human VEGF (50 ng/kg body weights) was intradermally injected to induce vascular leakage of albumin-bound Evans Blue (see FIG. 6A). In addition, the formamide-extracted Evans Blue was quantified spectrophotometically at 620 nm and corrected for hemoglobin (740 nm) and skin weight (see FIG. 6B).

[4] = test system: laser-induced choroidal neovascularization (CNV); conditions: 1 μg/eye single intravitreal injection; day 15; versus control peptide
Method: Quantification of the area of fluorescein leakage (FIG. 11D) and lesion (FIG. 11E) using images shown in (FIG. 11A) and (FIG. 11C); n=6-9 mice per group; **, p<0.01. […] Comparison between groups were performed using ANOVA.
To assess the barrier-protective and anti-angiogenic activities of EBIN, EBIN is tested in murine models of CNV. In addition to treatment with EBIN, LEAF™ antibody (a monoclonal rat antibody against mouse VEGF-A) and control peptide (Myr-FAEIPTI), were used as positive and negative experimental controls, respectfully.
Mice were anesthetized with a mixture of ketamine/xylazine (100 mg/5 mg/kg IP) and their pupils were dilated with a topical application of Cyclomydril (Alcon Laboratories, Fort Worth, Tex.). The fundus was viewed with an imaging camera, and laser photocoagulation was induced using the image-guided laser system (Micron IV, Phoenix Research Laboratories, Pleasanton, Calif.). Four laser burns at equal distance from the optic nerve were induced one by one in right eye by a green Argon laser pulse with a wavelength of 532 nm, a fixed diameter of 50 μm, duration of 70 ms, and power levels from 210-250 mW. Appearance of bubble or a small subretinal hemorrhage (diameter <1 mm) at the laser spot serves to indicate rupture of the Bruch's membrane and as confirmation of laser-induced CNV. This procedure was performed only on the right eye of each mouse. […]

[5] = Acute toxicity testing in vivo (eye); set-up: species or system C57BL/6 mice
Method: Representative images of Fundus Fluorescein Angiography F and corresponding Optical Coherence Tomography (FIG. 12B) at day 8 of intravitreal treatment with EBIN (1 μg/eye).
A short term study is designed to assess safety of administration in vivo. C57BL/6 mice (n=10, 5 mice per group/treatment route) are randomized and divided into two groups. The first group is treated with EBIN in the right eye via eye drops delivered twice daily, 5 μg per eye (10 μl) and, the second group is treated with intravitreal injection of EBIN in the right eye at the maximum dose, 1 μg per eye (2 μl) on day one. The intravitreal injection is performed under ketamine/xylazine (100 mg/5 mg/kg) anesthesia. Both groups are monitored daily for general health including body weight as well as any eye abnormalities including opacity, exophthalmia enophthalmia, conjunctivitis, abnormal secretions or crusting, and corneal ulcers for a period of 8 days. Animals are subsequently subjected to fluorescein angiography and OCT imaging.

[6] = test system: human umbilical vein endothelial cells; test: In vitro tubulogenesis in 2D matrigel model; format: cell-based; conditions: 1 μM; assessed 16 hours after plating on matrigel
Method: as §1
The effect of EBIN on in vitro tubulogenesis and in vivo angiogenesis was investigated using matrigel models. A single cell suspension of human umbilical vein endothelial cells was plated above matrigel-coated wells in the presence of 1 μM EBIN or control peptide; tube formation was assessed 16 hours later.

Row | Compound | release of Ca2+ from ER in response to thrombin (HMVECs) | number of vessels outside of the tumor ([1]; 10 μM/kg intraperitoneal for 4 days) | tumor growth ([1]; intraperitoneal injection at 10 μM/kg body weight for 4 days) | number of vessels / vessel formation in matrigel plugs [2] | endothelial cell death or cell cycle arrest (endothelial cell) | effect of post-treatment versus treatment on vessel ingrowth ([2]; treatment started 36 hrs after matrigel versus at the time of matrigel injection) | subcutaneous vascular leak of albumin-bound Evans Blue [3] | vascular leakage (area of fluorescein leakage) [4] | toxicity ([5]; eye drops 5 μg per eye twice daily or intravitreal 1 μg per eye, 8 days, with or without CNV induction) | crystals/precipitates in the eye ([5]; intravitreal 1 μg/eye, day 8) | changes in retinal vasculature, retinal pigment epithelium, choroid, sclera ([5]; intravitreal 1 μg/eye, day 8, angiography and OCT) | number of vessels outside of the tumor ([1]; 5 μM/kg, tail vein) | tumor growth rate ([1]; tail vein injection, 1 μM/kg body weight daily for 7 days) | tumor size ([1]; tail vein injection, 5 μM/kg body weight daily for 7 days) | tube formation (tubulogenesis) [6]
1 | CC(=O)O[C@H]1C(=O)[C@@]2(C)[C@H]([C@H](OC(=O)c3ccccc3)[C@]3(O)C[C@H](OC(=O)[C@H](O)[C@@H](NC(=O)c4ccccc4)c4ccccc4)C(C)=C1C3(C)C)[C@]1(OC(C)=O)CO[C@@H]1C[C@@H]2O [taxol, reference compound] | inhibits release of Ca^2+ from ER to the same extent as IP3R3 peptide | significantly reduced | significant delay in the tumor growth | – | – | – | – | – | – | – | – | – | – | – | –
2 | FAEIPTI [reference compound] | – | – | – | newly formed blood vessels grew into the matrigel | – | – | – | – | – | – | – | – | – | – | –
3 | FTEIPTI [EBIN] | – | – | – | markedly reduced | did not induce endothelial cell death or cell cycle arrest | post-treatment was as effective as a treatment | significantly inhibited subcutaneous vascular leak | significantly reduced | No toxicity was observed | forms small crystals/precipitates inside of various humor | no visible changes | significantly reduced; also recorded: superior effect as compared to taxol | developed the tumor at the same rate as untreated mice | reduction in the tumor size; also recorded: significantly smaller as compared to control untreated group | significantly abolished formation of tubes; also recorded: inhibited tubulogenesis
